Laboratory results reported in patent publication US9901617B2, “Cell permeable inhibitors of the scaffold protein plenty of SH3 domains (POSH) or Sh3Rfl” (The Curators of the University of Missouri, priority 2013, dated 2018).
No end group written: not given here.

Assays:
[1] = system: CD8+ T cells; settings: data not shown
[2] = system: normal thymocytes
[3] = system: T cells; settings: across a large range of concentrations
[4] = target: POSH/JIP-1 complex (Mus musculus, UniProt Q9WVI9)
Sequence of POSH/JIP-1 complex (Q9WVI9 whole entry): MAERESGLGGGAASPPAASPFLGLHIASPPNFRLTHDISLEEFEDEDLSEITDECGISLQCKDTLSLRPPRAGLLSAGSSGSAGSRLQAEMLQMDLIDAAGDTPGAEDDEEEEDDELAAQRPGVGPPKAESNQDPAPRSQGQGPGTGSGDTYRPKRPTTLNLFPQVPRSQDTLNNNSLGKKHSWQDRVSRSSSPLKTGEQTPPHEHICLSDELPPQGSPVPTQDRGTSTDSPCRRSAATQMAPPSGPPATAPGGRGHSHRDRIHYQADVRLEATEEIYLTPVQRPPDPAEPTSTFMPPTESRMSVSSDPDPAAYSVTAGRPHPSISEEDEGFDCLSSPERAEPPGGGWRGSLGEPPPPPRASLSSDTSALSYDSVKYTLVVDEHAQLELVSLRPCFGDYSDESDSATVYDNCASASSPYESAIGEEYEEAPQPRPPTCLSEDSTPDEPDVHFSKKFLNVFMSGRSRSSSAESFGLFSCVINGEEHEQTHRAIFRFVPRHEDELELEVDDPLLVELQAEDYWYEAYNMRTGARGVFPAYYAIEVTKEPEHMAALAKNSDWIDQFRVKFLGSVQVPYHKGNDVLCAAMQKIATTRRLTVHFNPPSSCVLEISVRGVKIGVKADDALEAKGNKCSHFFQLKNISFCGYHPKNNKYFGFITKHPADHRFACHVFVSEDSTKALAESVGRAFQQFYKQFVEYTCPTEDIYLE
Sequence of POSH/JIP-1 complex (Q8CE90 whole entry partner): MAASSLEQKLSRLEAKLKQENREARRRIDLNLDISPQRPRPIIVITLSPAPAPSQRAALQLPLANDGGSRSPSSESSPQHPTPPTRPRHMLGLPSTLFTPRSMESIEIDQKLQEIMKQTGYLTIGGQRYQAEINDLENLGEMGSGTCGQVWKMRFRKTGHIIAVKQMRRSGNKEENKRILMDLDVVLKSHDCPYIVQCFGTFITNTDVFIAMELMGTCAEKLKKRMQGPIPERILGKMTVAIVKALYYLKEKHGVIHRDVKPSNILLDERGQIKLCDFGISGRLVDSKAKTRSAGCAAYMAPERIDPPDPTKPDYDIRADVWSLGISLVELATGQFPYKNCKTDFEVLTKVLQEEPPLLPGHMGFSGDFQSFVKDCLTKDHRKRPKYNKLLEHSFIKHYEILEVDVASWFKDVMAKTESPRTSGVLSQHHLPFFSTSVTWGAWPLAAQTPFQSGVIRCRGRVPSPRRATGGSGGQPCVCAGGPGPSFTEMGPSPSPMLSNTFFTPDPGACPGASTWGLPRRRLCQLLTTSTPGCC
Sequence of POSH/JIP-1 complex (Q91Y86 whole entry partner): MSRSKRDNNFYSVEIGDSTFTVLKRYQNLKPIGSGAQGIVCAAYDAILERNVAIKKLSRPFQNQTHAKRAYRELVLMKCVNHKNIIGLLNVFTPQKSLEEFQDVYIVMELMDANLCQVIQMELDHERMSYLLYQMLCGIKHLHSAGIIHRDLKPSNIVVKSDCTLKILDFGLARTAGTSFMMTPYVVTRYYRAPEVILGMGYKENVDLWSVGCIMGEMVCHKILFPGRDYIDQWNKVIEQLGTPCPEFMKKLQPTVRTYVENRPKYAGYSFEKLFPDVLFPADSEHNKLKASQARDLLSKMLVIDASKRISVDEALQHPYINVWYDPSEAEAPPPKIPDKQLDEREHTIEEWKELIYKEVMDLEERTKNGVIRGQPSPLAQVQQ
Protocol: To identify a role for POSH in TCR-mediated JNK activation, we established its ability to bind components of the JNK signaling cascade in CD8+ T cells. For this, OT-1 TCR transgenic blasts (CTL) were re-stimulated with OVA-Tetramer (Tet)/α-CD28 and subjected to IP with antibodies against Rac1. Co-immunoprecipitation (Co-IP) of components of the JNK signaling pathway was assessed by immunoblot. […] To circumvent this problem we performed Co-IP analyses by flow cytometry (IP-FCM) using α-Rac1, α-POSH and α-JIP-1 antibodies covalently linked to latex beads. The beads were incubated with the lysates washed and probed with antibodies against the Co-IP target. The levels of associated molecules (secondary analyte/Co-IP target) were quantified relative to IP target (primary analyte/loading control). Specificity was determined by comparison to both isotype and negative control antibodies (FIG. 5 and FIG. 6). […] For IP-FCM quantification controls and Tat-POSH inhibitor specificity controls, OT-I T cells were stimulated with OVA-Tet for 24 hours. Cells were then lysed and subjected to IP-FCM using α-Rac-1, α-POSH or α-JIP-1 beads (FIG. 6A).
Cells were then lysed and subjected to IP-FCM using α-JIP-1 or α-Rac1 beads and the relative levels of POSH or JIP-1 were determined.

GRKKRRQRRRPPRKEDELELRKGEMFLVFER [Tat-POSH SH3.3]
reduction in in vitro cytotoxicity [1]: 10-15% | effect on normal cells [2]: not affected | toxicity to T cells [3]: non-toxic | POSH/JIP-1 complexes disrupted [4]: approximately 30%
